# From ChEMBL document CHEMBL1201862, “PubChem BioAssay data set” (2004)
#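 Growth conditions: 96-well plates. Treatment: test compound, 48 hours, 5 concentrations. Analysis: linear interpolation between bracketing concentrations; unreached endpoints set to highest concentration. GI50 marks 50% less growth.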 Active and inactive are the calls of the source. Cut-off read from the data, not from the text of the source: active = GI50 up to about 1.1 µM and inactive = higher.
# Key:
# Test in all cases: NCI tumour cell line growth inhibition, 48 h
# Hs-578T = system: Hs-578T
# MDA-MB-435 = system: MDA-MB-435
# A498 = system: A498
# T47D = system: T47D
# M14 = system: M14
# TK-10 = system: TK-10
# MDA-N = system: MDA-N
# MCF7 = system: MCF7
# SR = system: SR
# DU-145 = system: DU-145
# MDA-MB-231 = system: MDA-MB-231
# ACHN = system: ACHN
# NCI-H23 = system: NCI-H23
# 786-0 = system: 786-0
# RPMI-8226 = system: RPMI-8226
# PC-3 = system: PC-3
# CAKI-1 = system: CAKI-1
# KM-20L2 = system: KM-20L2
# DLD-1 = system: DLD-1
# M19-MEL = system: M19-MEL
Structure (SMILES),GI50 (Hs-578T),GI50 (MDA-MB-435),GI50 (A498),GI50 (T47D),GI50 (M14),GI50 (TK-10),GI50 (MDA-N),GI50 (MCF7),GI50 (SR),GI50 (DU-145),GI50 (MDA-MB-231),GI50 (ACHN),GI50 (NCI-H23),GI50 (786-0),GI50 (RPMI-8226),GI50 (PC-3),GI50 (CAKI-1),GI50 (KM-20L2),GI50 (DLD-1),GI50 (M19-MEL)
Cc1cccc(C)c1NC(=O)Nc1ccc(S(N)(=O)=O)cc1,> 100 µM (inactive),> 100 µM (inactive),> 100 µM (inactive),> 100 µM (inactive),> 100 µM (inactive),> 100 µM (inactive),> 100 µM (inactive),> 100 µM (inactive),> 100 µM (inactive),> 100 µM (inactive),> 100 µM (inactive),> 100 µM (inactive),> 100 µM (inactive),> 100 µM (inactive),> 100 µM (inactive),> 100 µM (inactive),> 100 µM (inactive),,,
CCOC(=O)C(=O)NC12CC3CC(CC(C3)C1)C2,,,> 100 µM (inactive),,> 100 µM (inactive),> 100 µM (inactive),,,,,,> 100 µM (inactive),> 100 µM (inactive),,> 100 µM (inactive),,> 100 µM (inactive),> 100 µM (inactive),> 100 µM (inactive),
COc1ccc(C(=C2C(=O)N(c3ccccc3)C(=O)C2=C(C)C)c2ccc(OC)cc2)cc1,3.69 µM (inactive),1.45 µM (inactive),2.94 µM (inactive),3.27 µM (inactive),2.4 µM (inactive),14 µM (inactive),1.7 µM (inactive),3.44 µM (inactive),1.09 µM (active),6.14 µM (inactive),5.09 µM (inactive),4.69 µM (inactive),> 28 µM (inactive),3.43 µM (inactive),4.1 µM (inactive),4.33 µM (inactive),3.66 µM (inactive),,,
O=C1C=C/C(=C/[C@H]2SSC=C[C@]23C=CC(=O)C3)C1,10.8 µM (inactive),17.7 µM (inactive),17.6 µM (inactive),36.1 µM (inactive),17.2 µM (inactive),24.7 µM (inactive),17.5 µM (inactive),5.79 µM (inactive),1.75 µM (inactive),20.2 µM (inactive),28.1 µM (inactive),18.1 µM (inactive),19.2 µM (inactive),7.55 µM (inactive),,24.7 µM (inactive),9.91 µM (inactive),,,
COc1c2c(cc3c(CCc4ccccc4)cc(=O)oc13)CCC(C)(C)O2,,,,,> 100 µM (inactive),> 100 µM (inactive),,,> 100 µM (inactive),,,> 100 µM (inactive),> 100 µM (inactive),,> 100 µM (inactive),,,> 100 µM (inactive),> 100 µM (inactive),> 100 µM (inactive)
COc1cccc(N2C(=O)CSC2c2cccc(Oc3ccccc3)c2)c1 (stereo not given),5.78 µM (inactive),2.81 µM (inactive),3.94 µM (inactive),9.04 µM (inactive),4.79 µM (inactive),4.45 µM (inactive),1.89 µM (inactive),2.48 µM (inactive),3.79 µM (inactive),20.4 µM (inactive),7.78 µM (inactive),6.17 µM (inactive),11.5 µM (inactive),6.47 µM (inactive),,5.3 µM (inactive),2.03 µM (inactive),,,
C=CCc1cccc2cc(C(=O)Nc3ccc(C)cc3)c(=N)oc12,> 100 µM (inactive),> 100 µM (inactive),> 100 µM (inactive),> 100 µM (inactive),> 100 µM (inactive),,> 100 µM (inactive),> 100 µM (inactive),> 100 µM (inactive),> 100 µM (inactive),> 100 µM (inactive),> 100 µM (inactive),> 100 µM (inactive),> 100 µM (inactive),> 100 µM (inactive),> 100 µM (inactive),> 100 µM (inactive),,,
COc1ccc(/C(Cl)=C(\C=O)c2ccc(F)cc2)cc1,,,17.4 µM (inactive),,12.9 µM (inactive),33.1 µM (inactive),,,,,,6.14 µM (inactive),14.8 µM (inactive),,4.49 µM (inactive),,8.18 µM (inactive),6.87 µM (inactive),8.17 µM (inactive),15 µM (inactive)
C/C(=N\OCC(O)CNCCSCc1ccccc1)c1ccccc1Cl (stereo not given),27.7 µM (inactive),17.4 µM (inactive),15.6 µM (inactive),22.6 µM (inactive),21.8 µM (inactive),17 µM (inactive),19.6 µM (inactive),19.8 µM (inactive),31.7 µM (inactive),23.3 µM (inactive),18 µM (inactive),18.1 µM (inactive),37.5 µM (inactive),21.4 µM (inactive),21.8 µM (inactive),18.5 µM (inactive),17.7 µM (inactive),,,
O=C(CC/C=C(/CS(=O)(=O)c1ccccc1)S(=O)(=O)c1ccccc1)c1ccccc1,,,> 100 µM (inactive),,> 100 µM (inactive),> 100 µM (inactive),,,56.8 µM (inactive),,,> 100 µM (inactive),> 100 µM (inactive),,> 100 µM (inactive),,,> 100 µM (inactive),> 100 µM (inactive),
CC(=O)OCC1OC(Nc2ncc(-c3ccc(C)cc3)s2)C(OC(C)=O)C(OC(C)=O)C1OC(C)=O (stereo not given),,,48.2 µM (inactive),,,,,13.3 µM (inactive),,,,,50.7 µM (inactive),,24.7 µM (inactive),,29 µM (inactive),,54.1 µM (inactive),18.8 µM (inactive)
C[Si](C)(C)/C(I)=C/CO,,,38.6 µM (inactive),,35.2 µM (inactive),33.3 µM (inactive),,,,,,17 µM (inactive),18 µM (inactive),37.3 µM (inactive),17.4 µM (inactive),,,20.5 µM (inactive),,20.8 µM (inactive)
CCn1c(=N)sc2nc3ccccc3n2c1=O,> 100 µM (inactive),> 100 µM (inactive),> 100 µM (inactive),> 100 µM (inactive),> 100 µM (inactive),> 100 µM (inactive),> 100 µM (inactive),9.48 µM (inactive),> 100 µM (inactive),> 100 µM (inactive),> 100 µM (inactive),> 100 µM (inactive),> 100 µM (inactive),> 100 µM (inactive),> 100 µM (inactive),> 100 µM (inactive),> 100 µM (inactive),,,
O=S1(=O)CC#CC[C@@H](CO)[C@@H](CO)CC#CC1,,,,,40.1 µM (inactive),> 100 µM (inactive),,,38.7 µM (inactive),,,> 100 µM (inactive),> 100 µM (inactive),> 100 µM (inactive),,,,> 100 µM (inactive),> 100 µM (inactive),47.1 µM (inactive)
C=C(CS(=O)(=O)c1ccccc1)[P+](c1ccccc1)(c1ccccc1)c1ccccc1,,,35.7 µM (inactive),,17.4 µM (inactive),31.4 µM (inactive),,,,,,21.7 µM (inactive),20.4 µM (inactive),19.9 µM (inactive),3.06 µM (inactive),,23.4 µM (inactive),17.5 µM (inactive),21.4 µM (inactive),17.3 µM (inactive)
O=C(NCCOC(=O)OCCNC(=O)NC1CCCCC1)NC1CCCCC1,> 100 µM (inactive),> 100 µM (inactive),> 100 µM (inactive),> 100 µM (inactive),> 100 µM (inactive),> 100 µM (inactive),> 100 µM (inactive),0.834 µM (active),> 100 µM (inactive),> 100 µM (inactive),15.8 µM (inactive),> 100 µM (inactive),80.2 µM (inactive),> 100 µM (inactive),> 100 µM (inactive),> 100 µM (inactive),> 100 µM (inactive),,,
CN(C1=NCCO1)c1cccc2ccccc12,> 10 µM (inactive),> 10 µM (inactive),> 10 µM (inactive),> 10 µM (inactive),> 10 µM (inactive),> 10 µM (inactive),> 10 µM (inactive),> 10 µM (inactive),> 10 µM (inactive),> 10 µM (inactive),> 10 µM (inactive),> 10 µM (inactive),> 10 µM (inactive),,> 10 µM (inactive),> 10 µM (inactive),> 10 µM (inactive),,,
O=C(CC(=O)C(F)(F)F)c1csc2ccccc12,,,,,23.6 µM (inactive),4.28 µM (inactive),,,17.5 µM (inactive),,,34.5 µM (inactive),29.4 µM (inactive),36.7 µM (inactive),24.8 µM (inactive),,,39.3 µM (inactive),,32.8 µM (inactive)
Cc1cc(=O)nc(S(=O)(=O)NC(=S)Nc2ccc(Cl)cc2)[nH]1,> 100 µM (inactive),> 100 µM (inactive),> 100 µM (inactive),44.9 µM (inactive),> 100 µM (inactive),> 100 µM (inactive),> 100 µM (inactive),> 100 µM (inactive),18.8 µM (inactive),> 100 µM (inactive),> 100 µM (inactive),> 100 µM (inactive),> 100 µM (inactive),> 100 µM (inactive),34.4 µM (inactive),> 100 µM (inactive),77.8 µM (inactive),,,
O=C(O)c1ccc(C(=O)O)c2c(C(=O)O)ccc(C(=O)O)c12,> 100 µM (inactive),> 100 µM (inactive),> 100 µM (inactive),> 100 µM (inactive),> 100 µM (inactive),> 100 µM (inactive),> 100 µM (inactive),> 100 µM (inactive),> 100 µM (inactive),> 100 µM (inactive),> 100 µM (inactive),> 100 µM (inactive),> 100 µM (inactive),> 100 µM (inactive),> 100 µM (inactive),> 100 µM (inactive),> 100 µM (inactive),,,
